What was measured:
Assay in all cases: Kinase profiling, Invitrogen Z'-LYTE
Assay type in all cases: biochemical
Settings in all cases: Table 2
[1] = target: T1, ABL1 (Homo sapiens, UniProt P00519)
T1 construct: purchased Invitrogen
Method: (§1) Kinase profiling was conducted using Invitrogen Z'-LYTE screening protocol and assay conditions found at www.invitrogen.com. Compound (2) inhibited PLK1 completely at 5 μM.

[2] = target: T2, MARK2 (Homo sapiens, UniProt Q7KZI7)
T2 construct: purchased Invitrogen
T2 sequence (Q7KZI7 whole entry): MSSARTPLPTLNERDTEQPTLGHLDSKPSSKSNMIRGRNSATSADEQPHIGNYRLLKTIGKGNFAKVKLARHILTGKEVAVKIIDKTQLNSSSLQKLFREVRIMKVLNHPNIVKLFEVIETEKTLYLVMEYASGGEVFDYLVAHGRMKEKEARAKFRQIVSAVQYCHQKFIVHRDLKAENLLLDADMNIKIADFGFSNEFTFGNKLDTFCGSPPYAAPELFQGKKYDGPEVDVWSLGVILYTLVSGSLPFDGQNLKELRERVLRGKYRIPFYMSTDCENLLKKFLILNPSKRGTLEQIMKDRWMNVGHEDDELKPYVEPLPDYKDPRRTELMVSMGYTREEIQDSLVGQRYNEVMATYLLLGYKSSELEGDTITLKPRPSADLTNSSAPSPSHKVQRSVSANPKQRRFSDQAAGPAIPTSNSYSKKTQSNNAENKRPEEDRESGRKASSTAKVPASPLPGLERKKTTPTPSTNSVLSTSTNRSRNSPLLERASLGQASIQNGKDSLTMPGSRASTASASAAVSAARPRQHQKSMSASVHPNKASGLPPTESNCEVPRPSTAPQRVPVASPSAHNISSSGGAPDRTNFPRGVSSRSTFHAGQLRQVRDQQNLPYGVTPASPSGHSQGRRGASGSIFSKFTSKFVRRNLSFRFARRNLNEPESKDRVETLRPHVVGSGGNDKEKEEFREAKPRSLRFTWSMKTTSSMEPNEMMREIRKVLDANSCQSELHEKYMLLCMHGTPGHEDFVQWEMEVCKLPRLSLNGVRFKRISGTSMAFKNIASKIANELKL
Method: as §1

[3] = target: T3, MAPKAPK5 (PRAK) (Homo sapiens, UniProt Q8IW41)
T3 construct: purchased Invitrogen
T3 sequence (Q8IW41 1-473): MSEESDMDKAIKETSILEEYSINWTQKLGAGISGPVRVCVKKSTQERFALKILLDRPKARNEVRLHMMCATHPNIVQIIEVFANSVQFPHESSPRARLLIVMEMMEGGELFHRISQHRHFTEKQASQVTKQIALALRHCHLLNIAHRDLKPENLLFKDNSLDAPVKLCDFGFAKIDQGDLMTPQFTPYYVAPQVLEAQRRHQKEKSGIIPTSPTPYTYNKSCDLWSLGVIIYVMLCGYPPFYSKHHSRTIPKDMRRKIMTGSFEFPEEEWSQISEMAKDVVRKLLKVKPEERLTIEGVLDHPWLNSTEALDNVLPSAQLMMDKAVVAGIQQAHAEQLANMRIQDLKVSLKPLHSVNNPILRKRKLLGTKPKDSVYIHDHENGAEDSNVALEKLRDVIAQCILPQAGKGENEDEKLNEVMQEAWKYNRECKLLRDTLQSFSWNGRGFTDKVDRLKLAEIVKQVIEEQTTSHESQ
Method: as §1

[4] = target: T4, GRK4 (Homo sapiens, UniProt P32298)
T4 construct: purchased Invitrogen
T4 sequence (P32298 whole entry): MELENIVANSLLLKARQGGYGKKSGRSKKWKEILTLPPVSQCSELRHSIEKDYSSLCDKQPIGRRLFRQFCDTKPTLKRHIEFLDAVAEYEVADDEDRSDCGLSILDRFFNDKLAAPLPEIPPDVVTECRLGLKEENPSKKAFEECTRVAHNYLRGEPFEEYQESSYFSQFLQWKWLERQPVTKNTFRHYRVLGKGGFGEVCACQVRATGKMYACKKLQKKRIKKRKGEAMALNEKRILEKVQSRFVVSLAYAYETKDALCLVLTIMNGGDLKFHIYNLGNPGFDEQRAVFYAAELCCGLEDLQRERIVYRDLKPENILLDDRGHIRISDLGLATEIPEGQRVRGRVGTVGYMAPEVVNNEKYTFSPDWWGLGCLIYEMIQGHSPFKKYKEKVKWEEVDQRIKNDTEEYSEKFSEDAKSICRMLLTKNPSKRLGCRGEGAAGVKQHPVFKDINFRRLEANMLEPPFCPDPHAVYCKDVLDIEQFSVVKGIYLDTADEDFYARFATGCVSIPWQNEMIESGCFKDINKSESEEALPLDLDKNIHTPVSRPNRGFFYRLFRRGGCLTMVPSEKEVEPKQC
Method: as §1

[5] = target: T5, FLT3 D835Y (Homo sapiens, UniProt P36888, D835Y)
T5 construct: purchased Invitrogen
T5 sequence (P36888 27-993 D835Y): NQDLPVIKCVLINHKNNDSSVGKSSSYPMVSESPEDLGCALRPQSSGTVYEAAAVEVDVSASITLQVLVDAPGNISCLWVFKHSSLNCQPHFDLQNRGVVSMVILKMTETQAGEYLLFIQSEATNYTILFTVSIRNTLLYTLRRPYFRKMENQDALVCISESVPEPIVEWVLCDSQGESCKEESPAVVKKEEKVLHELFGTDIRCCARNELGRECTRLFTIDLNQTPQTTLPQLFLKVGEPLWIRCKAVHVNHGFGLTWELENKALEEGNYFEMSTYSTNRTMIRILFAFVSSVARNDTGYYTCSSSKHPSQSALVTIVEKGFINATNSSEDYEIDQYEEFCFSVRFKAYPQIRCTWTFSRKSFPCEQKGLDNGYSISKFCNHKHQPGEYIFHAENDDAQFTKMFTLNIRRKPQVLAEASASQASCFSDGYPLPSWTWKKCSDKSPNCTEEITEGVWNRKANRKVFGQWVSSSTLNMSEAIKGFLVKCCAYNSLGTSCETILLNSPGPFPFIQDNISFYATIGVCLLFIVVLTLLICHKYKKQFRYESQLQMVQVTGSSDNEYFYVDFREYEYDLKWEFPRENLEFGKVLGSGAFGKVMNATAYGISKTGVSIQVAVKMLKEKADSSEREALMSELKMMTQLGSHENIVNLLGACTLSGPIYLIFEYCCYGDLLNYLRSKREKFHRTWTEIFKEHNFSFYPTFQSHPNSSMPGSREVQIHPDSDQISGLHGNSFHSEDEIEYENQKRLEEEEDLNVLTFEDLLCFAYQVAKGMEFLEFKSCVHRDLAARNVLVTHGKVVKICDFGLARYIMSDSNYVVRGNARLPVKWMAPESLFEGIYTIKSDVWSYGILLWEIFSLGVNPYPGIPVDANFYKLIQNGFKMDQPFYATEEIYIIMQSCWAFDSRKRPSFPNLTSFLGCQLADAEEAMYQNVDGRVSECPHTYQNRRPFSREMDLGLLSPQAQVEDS
Method: as §1

[6] = target: T6, PHKG2 (Homo sapiens, UniProt P15735)
T6 construct: purchased Invitrogen
T6 sequence (P15735 1-406): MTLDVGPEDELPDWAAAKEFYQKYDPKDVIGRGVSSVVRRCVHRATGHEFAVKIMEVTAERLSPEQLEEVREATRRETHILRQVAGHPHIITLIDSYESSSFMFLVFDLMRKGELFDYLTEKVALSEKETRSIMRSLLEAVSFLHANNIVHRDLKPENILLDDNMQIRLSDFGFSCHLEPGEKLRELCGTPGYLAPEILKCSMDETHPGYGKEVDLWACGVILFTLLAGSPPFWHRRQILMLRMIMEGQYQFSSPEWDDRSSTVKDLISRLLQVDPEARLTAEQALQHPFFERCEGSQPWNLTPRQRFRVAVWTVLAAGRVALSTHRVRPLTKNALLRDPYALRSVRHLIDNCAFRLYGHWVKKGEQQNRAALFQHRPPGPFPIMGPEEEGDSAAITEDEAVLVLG
Method: as §1

[7] = target: T7, CSK (Homo sapiens, UniProt P41240)
T7 construct: purchased Invitrogen
T7 sequence (P41240 whole entry): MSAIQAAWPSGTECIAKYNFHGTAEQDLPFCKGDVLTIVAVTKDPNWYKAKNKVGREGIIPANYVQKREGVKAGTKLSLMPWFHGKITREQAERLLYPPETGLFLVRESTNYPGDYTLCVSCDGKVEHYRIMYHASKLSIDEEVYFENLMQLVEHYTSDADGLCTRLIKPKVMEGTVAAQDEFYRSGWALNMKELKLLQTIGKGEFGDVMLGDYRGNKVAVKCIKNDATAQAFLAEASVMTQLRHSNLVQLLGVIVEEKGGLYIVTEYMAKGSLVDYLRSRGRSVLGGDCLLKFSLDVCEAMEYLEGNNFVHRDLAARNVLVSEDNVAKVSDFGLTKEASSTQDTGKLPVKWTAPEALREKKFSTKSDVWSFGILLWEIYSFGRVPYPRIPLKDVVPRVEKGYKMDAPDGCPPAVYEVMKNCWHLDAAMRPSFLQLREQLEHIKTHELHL
Method: as §1

[8] = target: T8, RPS6KA2 (RSK3) (Homo sapiens, UniProt Q15349)
T8 construct: purchased Invitrogen
T8 sequence (Q15349 whole entry): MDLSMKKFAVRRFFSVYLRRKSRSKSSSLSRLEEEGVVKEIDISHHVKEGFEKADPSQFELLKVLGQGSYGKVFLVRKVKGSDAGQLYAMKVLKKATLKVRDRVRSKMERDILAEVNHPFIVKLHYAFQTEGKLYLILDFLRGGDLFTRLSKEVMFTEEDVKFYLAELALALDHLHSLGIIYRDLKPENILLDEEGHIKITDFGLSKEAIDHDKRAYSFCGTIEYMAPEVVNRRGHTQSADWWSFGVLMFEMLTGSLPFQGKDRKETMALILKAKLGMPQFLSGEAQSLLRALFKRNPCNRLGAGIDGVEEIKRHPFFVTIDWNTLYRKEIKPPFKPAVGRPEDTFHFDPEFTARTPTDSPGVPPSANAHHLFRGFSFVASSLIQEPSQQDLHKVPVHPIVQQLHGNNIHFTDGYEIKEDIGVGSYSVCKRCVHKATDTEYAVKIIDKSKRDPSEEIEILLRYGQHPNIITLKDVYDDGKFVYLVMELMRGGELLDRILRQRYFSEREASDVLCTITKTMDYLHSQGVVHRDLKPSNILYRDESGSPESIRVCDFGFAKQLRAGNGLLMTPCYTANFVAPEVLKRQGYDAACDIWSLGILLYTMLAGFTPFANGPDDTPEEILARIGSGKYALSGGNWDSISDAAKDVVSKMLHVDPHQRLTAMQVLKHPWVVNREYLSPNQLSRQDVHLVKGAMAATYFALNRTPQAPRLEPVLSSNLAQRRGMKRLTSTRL
Method: as §1

[9] = target: T9, PRKX (Homo sapiens, UniProt P51817)
T9 construct: purchased Invitrogen
T9 sequence (P51817 1-358): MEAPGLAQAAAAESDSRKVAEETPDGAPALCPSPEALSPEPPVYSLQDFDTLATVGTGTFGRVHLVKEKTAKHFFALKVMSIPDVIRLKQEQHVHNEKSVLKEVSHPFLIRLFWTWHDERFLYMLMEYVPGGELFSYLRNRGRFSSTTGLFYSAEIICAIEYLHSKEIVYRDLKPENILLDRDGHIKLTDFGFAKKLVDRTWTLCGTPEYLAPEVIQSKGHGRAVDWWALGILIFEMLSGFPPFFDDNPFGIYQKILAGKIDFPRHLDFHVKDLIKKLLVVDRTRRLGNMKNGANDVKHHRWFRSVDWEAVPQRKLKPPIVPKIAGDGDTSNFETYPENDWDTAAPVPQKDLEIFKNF
Method: as §1

T1 sequence (P00519 whole entry): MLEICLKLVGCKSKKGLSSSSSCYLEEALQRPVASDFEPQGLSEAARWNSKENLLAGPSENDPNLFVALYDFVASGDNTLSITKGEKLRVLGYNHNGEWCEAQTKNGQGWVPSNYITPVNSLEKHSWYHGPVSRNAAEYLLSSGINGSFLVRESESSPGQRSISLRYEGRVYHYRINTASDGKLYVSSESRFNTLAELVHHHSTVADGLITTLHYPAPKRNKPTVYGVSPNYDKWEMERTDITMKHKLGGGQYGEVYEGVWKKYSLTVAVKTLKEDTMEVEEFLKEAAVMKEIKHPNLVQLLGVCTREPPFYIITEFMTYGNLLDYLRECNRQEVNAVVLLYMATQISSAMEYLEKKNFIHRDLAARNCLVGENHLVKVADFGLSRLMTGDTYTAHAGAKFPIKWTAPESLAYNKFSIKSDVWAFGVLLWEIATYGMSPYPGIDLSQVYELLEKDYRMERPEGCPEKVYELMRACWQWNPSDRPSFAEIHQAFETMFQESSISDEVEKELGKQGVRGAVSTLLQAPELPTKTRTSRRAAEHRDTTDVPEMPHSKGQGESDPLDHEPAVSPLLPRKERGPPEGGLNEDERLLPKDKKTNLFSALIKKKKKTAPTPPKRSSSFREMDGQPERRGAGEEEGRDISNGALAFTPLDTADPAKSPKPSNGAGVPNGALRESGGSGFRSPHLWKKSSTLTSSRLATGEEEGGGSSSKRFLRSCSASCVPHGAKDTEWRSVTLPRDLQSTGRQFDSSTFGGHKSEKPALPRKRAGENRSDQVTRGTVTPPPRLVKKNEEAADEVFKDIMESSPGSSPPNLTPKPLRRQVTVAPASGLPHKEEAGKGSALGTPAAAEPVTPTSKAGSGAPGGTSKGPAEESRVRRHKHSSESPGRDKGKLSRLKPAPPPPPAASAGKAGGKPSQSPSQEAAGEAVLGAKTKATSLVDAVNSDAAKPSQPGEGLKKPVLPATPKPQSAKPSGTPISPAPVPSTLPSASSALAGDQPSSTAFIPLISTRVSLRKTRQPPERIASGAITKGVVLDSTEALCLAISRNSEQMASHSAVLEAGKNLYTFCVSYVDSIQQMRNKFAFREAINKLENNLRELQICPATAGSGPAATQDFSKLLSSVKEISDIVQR

For `COc1ccc(OC(=O)n2c(=O)oc3cc(C(C)=O)ccc32)cc1` [Compound 2], the “% Inhibition Point 1” value [1] was −147%, the “% Inhibition Point 2” value [1] was −234% and the “% Inhibition mean” value [1] was −190%. For the same compound, the “% Inhibition Point 1” value [2] was −172%, the “% Inhibition Point 2” value [2] was −157% and the “% Inhibition mean” value [2] was −164%. The “% Inhibition Point 1” value [3] was −146%, the “% Inhibition Point 2” value [3] was −147% and the “% Inhibition mean” value [3] was −146%. For the same compound, the “% Inhibition Point 1” value [4] was 77%, the “% Inhibition Point 2” value [4] was 76% and the “% Inhibition mean” value [4] was 76%. The “% Inhibition Point 1” value [5] was −41%, the “% Inhibition Point 2” value [5] was −43% and the “% Inhibition mean” value [5] was −42%. For the same compound, the “% Inhibition Point 1” value [6] was −360%, the “% Inhibition Point 2” value [6] was −308% and the “% Inhibition mean” value [6] was −334%. The “% Inhibition Point 1” value [7] was −42%, the “% Inhibition Point 2” value [7] was −60% and the “% Inhibition mean” value [7] was −51%. For the same compound, the “% Inhibition Point 1” value [8] was −266%, the “% Inhibition Point 2” value [8] was −267% and the “% Inhibition mean” value [8] was −267%. The “% Inhibition Point 1” value [9] was −135%, the “% Inhibition Point 2” value [9] was −134% and the “% Inhibition mean” value [9] was −135%.

— US9573911B2, “Diphosphate mimetics and uses thereof” (President and Fellows of Harvard College, priority 2011, dated 2017)
